# Laboratory results taken from article PMC3518313 (Biochemistry, 2012).
# Where two headings read alike, the source gives them in different places.
# What was measured:
# [1] = tested on: CaaD; assay: Inhibition of CaaD by the internal standard tartrate; type: biochemical, Pseudomonas pavonaceae 170; conditions: at concentrations of 4 mM
# [2] = molecular target: T1, αY60W-CaaD (Pseudomonas pavonaceae, UniProt Q9EV84+Q9EV85, Q9EV85:Y61W)
# T1 sequence (Q9EV85 2-76 Y61W): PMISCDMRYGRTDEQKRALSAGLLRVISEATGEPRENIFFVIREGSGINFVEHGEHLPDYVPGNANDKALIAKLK
# T1 sequence (Q9EV84 2-71): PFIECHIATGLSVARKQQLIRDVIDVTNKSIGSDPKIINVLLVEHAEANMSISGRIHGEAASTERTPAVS
# [3] = molecular target: T1, αY60W-CaaD; conditions: competitive inhibition; 9 at 35–200 μM, bromide 0–50,000 μM
# [4] = molecular target: T1, αY60W-CaaD; assay: Global fitting of kinetic data to the six-step model; type: biochemical, Pseudomonas pavonaceae 170
# [5] = tested on: αL57W-CaaD; assay: Steady state activity assay; type: biochemical, Pseudomonas pavonaceae 170; conditions: αL57W mutant
# [6] = molecular target: T1, αY60W-CaaD; assay: Stopped-flow fluorescence binding of malonate semialdehyde; set-up: species or system Pseudomonas pavonaceae 170
# [7] = molecular target: T1, αY60W-CaaD; conditions: αY60W-CaaD vs wild-type
# [8] = molecular target: T2, Wild-type CaaD (Pseudomonas pavonaceae, UniProt Q9EV84+Q9EV85); assay: Rapid-quench burst experiment, bromide quantified by IC; conditions: wild-type 400 μM; saturating 9; pH 8.1, 22 °C
# T2 sequence (Q9EV85 2-76): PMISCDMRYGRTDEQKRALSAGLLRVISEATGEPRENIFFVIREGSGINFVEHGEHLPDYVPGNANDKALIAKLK
# T2 sequence (Q9EV84 2-71): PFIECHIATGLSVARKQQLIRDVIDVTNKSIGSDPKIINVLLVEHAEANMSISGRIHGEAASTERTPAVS
# [9] = molecular target: βI37W-CaaD (Pseudomonas pavonaceae, UniProt Q9EV84+Q9EV85, Q9EV84:I38W); assay: biochemical
# [10] = molecular target: T1, αY60W-CaaD; assay: Stopped-flow fluorescence of the reaction with 9, conventional analysis; type: biochemical, Pseudomonas pavonaceae 170
# [11] = molecular target: T1, αY60W-CaaD; assay: Rapid-quench burst experiment, bromide quantified by IC
# [12] = tested on: αM7W-CaaD; type: biochemical; conditions: αM7W-CaaD vs wild-type
# [13] = tested on: O=C(O)/C=C/Br; assay: purified protein, by the assay type
# [14] = substrate: O=C(O)/C=C/Br; assay: purified protein, by the assay type; conditions: other: wild-type CaaD, 100 mM Na2HPO4 buffer pH 8.1, 22 °C
# [15] = Table 2, αY60W 400 μM, saturating 9, pH 8.1, 22 °C
# [16] = Table 3, enzyme concentration 200 μM, 9 at 10,000 μM
# [17] = Table 3, enzyme concentration 400 μM, 9 at 10,000 μM
# [18] = Table 3, enzyme concentration 600 μM, 9 at 10,000 μM
# [19] = other: αM7W, 100 mM Na2HPO4 buffer pH 8.1, 22 °C, pH 8.1, 22.0 °C
# [20] = other: using the numbers in Table 4 and Scheme 3
molecule,measurement,setting,value
O=C(O)C(O)C(O)C(=O)O (centres unmarked) [Tartrate],inhibition of CaaD,[1],does not inhibit
Br [bromide],increase in fluorescence,[2]; bromide bound to αY60W-CaaD,~ 14%
same,fluorescence factor for enzyme-bound bromide,[2]; fit by simulation,1.17
same,Kd,"[2]; read-out: Kd, Br-, fit by simulation, koff fixed at 200 s^−1",12 mM
same,Kd,"[2]; read-out: predicted Kd, saturation of the fluorescence signal, hyperbolic fit",7.4 mM
same,Ki,[3],~10 mM
same,Kd,"[4]; read-out: Kd,Br, best fit, global fit, k5 held fixed at 200 s^−1",12.5 mM
"O=C(O)/C=C/Cl [compound 2, trans-3-chloroacrylic acid]",activity,[5],no activity
"O=CCC(=O)O [compound 4, malonate semialdehyde]",Kd,"[6]; Kd (koff / kon), estimate from conventional kon and koff",1.1 mM
same,Kd,"[6]; Kd, 4, calculated from simulation kon and koff",~0.6 mM
same,Kd,"[6]; Kd, end-point fluorescence titration fit to Equation S2",0.38 mM
same,fluorescence factor for enzyme bound to 4,[6]; fit by simulation,1.14
same,koff,"[6]; read-out: koff, 4, conventional analysis, kobs vs [4], 250 ms",28 s⁻¹
same,koff,"[6]; read-out: koff, 4, fit by simulation (250 ms)",17 s⁻¹
same,increase in the fluorescence signal,[6]; upon mixing αY60W-CaaD with 4,16%
"O=C(O)/C=C/Br [compound 9, trans-3-bromoacrylate]",decrease in Km compared with wild-type,[7],~ 1.5 fold
same,Burst Amplitude (A),[8],0.8
same,kburst,[8],90 ± 20 ^c s^−1
same,kcat (calculated from the burst equation),[8],3 ± 0.5 s⁻¹
same,Kd,[9],> 40 mM
same,activity,[5],no activity
same,net forward rate kfor,[10]; fit to Eq. 3,~ 8 s^−1
same,apparent reverse rate krev,"[10]; fit to Eq. 3, equal to kcat",~ 3 s^−1
same,maximum rate of the fluorescence change,"[10]; single exponential fit, first 1 s",~ 10 s^−1
same,Burst Amplitude (A),[11]; [15],0.9
same,kburst,[11]; [15],86 ± 10 s⁻¹
same,kcat (calculated from the burst equation),[11]; [15],2.5 ± 0.5 s⁻¹
same,Burst Amplitude (A),[11]; [16],0.85
same,kburst,[11]; [16],43 ± 3 ^c s^−1
same,kcat (calculated from the burst equation),[11]; [16],1.8 ± 0.5 s⁻¹
same,Burst Amplitude (A),[11]; [17],0.9
same,kburst,[11]; [17],86 ± 20 s⁻¹
same,kcat (calculated from the burst equation),[11]; [17],2.5 ± 0.5 s⁻¹
same,Burst Amplitude (A),[11]; [18],0.94
same,kburst,[11]; [18],107 ± 15 s⁻¹
same,kcat (calculated from the burst equation),[11]; [18],2.8 ± 0.5 s⁻¹
same,steady state turnover,"[11]; summary of Tables 2 and 3 (CaaD and αY60W-CaaD), 9 at 10 mM",3 s⁻¹
same,decrease in kcat compared with wild-type,[12],~ 4 fold
same,decrease in kcat/Km compared with wild-type,[12],4 fold
same,"f/f0 (fluorescence scaling factor), best fit","[4]; global fit to Scheme 4, fractional change in enzyme fluorescence",0.710
same,"k3, best fit","[4]; global fit, formation of E*PQ, k-3 fixed at 1 s^−1",9.6 s⁻¹
αM7W-CaaD (Pseudomonas pavonaceae; Q9EV85:M8W),Km,[13]; [19],120 ± 10 OM
same,kcat,[13]; [19],0.6 s⁻¹
same,kcat/Km,[13]; [19],3000 M⁻¹ s⁻¹
αY60W-CaaD (Pseudomonas pavonaceae; Q9EV85:Y61W),Km,[13]; [20],95 µM
same,kcat,[13]; [20],2.2 s⁻¹
same,Km,"[13]; other: αY60W, 100 mM Na2HPO4 buffer pH 8.1, 22 °C, pH 8.1, 22.0 °C",70 ± 3.5 OM
Wild-type CaaD (Pseudomonas pavonaceae) (protein) chain 1: PMISCDMRYGRTDEQKRALSAGLLRVISEATGEPRENIFFVIREGSGINFVEHGEHLPDYVPGNANDKALIAKLK chain 2: PFIECHIATGLSVARKQQLIRDVIDVTNKSIGSDPKIINVLLVEHAEANMSISGRIHGEAASTERTPAVS,Km,[14],120 ± 10 OM
same,kcat,[14],2.5 s⁻¹
same,kcat/Km,[14],13000 M⁻¹ s⁻¹
